From patent US11786519B2, “Apoptosis-inducing agents for the treatment of cancer and immune and autoimmune diseases” (AbbVie Inc., priority 2011, dated 2023)

Assays:
[1] = molecular target: mouse FL5.12 cells transfected with Bcl-xL (Homo sapiens, UniProt Q07817); experiment: FL5.12 cellular assay (cell viability, CellTiter-Glo); format: cell-based; settings: IL-3-depleted, 3% FBS assay media, 24 hours; read-out: FL5.12 Bcl-xL, −IL3, EC50
Source text: Individual determinations were the result of duplicate values.

Bcl-xL = Bcl-xL (Homo sapiens, UniProt Q07817); experiment: TR-FRET binding assay, competition with F-Bak for Bcl-xL; settings: competition with F-Bak probe, GST-Bcl-xL
Sequence of Bcl-xL (Q07817 whole entry): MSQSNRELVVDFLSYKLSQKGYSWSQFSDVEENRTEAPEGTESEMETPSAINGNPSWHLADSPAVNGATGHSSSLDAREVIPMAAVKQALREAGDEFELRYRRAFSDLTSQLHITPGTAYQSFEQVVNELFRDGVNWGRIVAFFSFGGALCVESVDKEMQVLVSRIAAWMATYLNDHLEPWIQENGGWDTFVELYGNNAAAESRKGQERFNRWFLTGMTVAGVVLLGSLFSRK
Method: Determination of the utility of compounds having Formula (I) as binders to and inhibitors of anti-apoptotic Bcl-xL proteins was performed using the Time Resolved-Fluorescence Resonance Energy Transfer (TR-FRET) Assay. Tb-anti-GST antibody was purchased from Invitrogen (Catalog No. PV4216).
The measurement of competition of compounds of the invention with F-Bak for a Bcl-2 family protein (Bcl-xL) binding site using a Time Resolved Fluorescence Resonance Energy Transfer (TR-FRET) binding assay:
Test compounds were serially diluted in DMSO starting at 50 µM (2× starting concentration; 10% DMSO) and 10 μL transferred into a 384-well plate.
The samples are then mixed on a shaker for 1 minute then incubated for an additional 2 hours at room temperature. For each assay plate, a probe/antibody and protein/antibody/probe mixture were included as a negative and a positive control, respectively. Fluorescence was measured on the ENVISION plate reader (Perkin Elmer) using a 340/35 nm excitation filter and 520/525 (F-Bak) and 495/510 nm ([…]) emission filters. Dissociation constants (Ki) were determined using Wang's equation (Wang, Z. X. An exact mathematical expression for describing competitive binding of two different ligands to a protein molecule. FEBS Lett. 1995 360:111-114). The TR-FRET assay can be performed in the presence of varying concentrations of human serum (HS) or fetal bovine serum (FBS).

Sequence of mouse FL5.12 cells transfected with Bcl-xL (Q07817 whole entry, change not shown): as the sequence (Q07817 whole entry) above

For `Cc1nn(CC23CC4CC(CC(C4)C2)C3)c(C)c1-c1ccc(N2CCc3cccc(C(=O)Nc4nc5ccccc5s4)c3C2)nc1C(=O)O` [Example 2, 6-[8-(1,3-benzothiazol-2-ylcarbamoyl)-3,4-dihydroisoquinolin-2(1H)-yl]-3-[3,5-dimethyl-1-(tricyclo[3.3.1.1^3,7]dec-1-ylmethyl)-1H-pyrazol-4-yl]pyridine-2-carboxylic acid], the EC50 [1] was < 1 nM and the Ki (Bcl-xL) was < 0.1 nM.
For `CC12CC3CC(C)(C1)CC(Cn1cc(-c4ccc(N5CCc6cccc(C(=O)Nc7nc8ccccc8s7)c6C5)nc4C(=O)O)cn1)(C3)C2` [Example 5, 6-[8-(1,3-benzothiazol-2-ylcarbamoyl)-3,4-dihydroisoquinolin-2(1H)-yl]-3-(1-{[3,5-dimethyltricyclo[3.3.1.1^3,7]dec-1-yl]methyl}-1H-pyrazol-4-yl)pyridine-2-carboxylic acid], the EC50 [1] was 2 nM and the Ki (Bcl-xL) was < 0.1 nM.
Molecule `CC12CC3(C)CC(C)(C1)CC(Cn1cc(-c4ccc(N5CCc6cccc(C(=O)Nc7nc8ccccc8s7)c6C5)nc4C(=O)O)cn1)(C2)C3` [Example 9, 6-[8-(1,3-benzothiazol-2-ylcarbamoyl)-3,4-dihydroisoquinolin-2(1H)-yl]-3-{1-[(3,5,7-trimethyltricyclo[3.3.1.1^3,7]dec-1-yl)methyl]-1H-pyrazol-4-yl}pyridine-2-carboxylic acid] has an EC50 [1] of 3 nM and a Ki (Bcl-xL) of 0.2 nM.
With `Cc1c(-c2ccc(N3Cc4c(C(=O)Nc5nc6ccccc6s5)cccc4C(C)(C)C3)nc2C(=O)O)cnn1CC12CC3CC(CC(C3)C1)C2` [Example 14, 6-[8-(1,3-benzothiazol-2-ylcarbamoyl)-4,4-dimethyl-3,4-dihydroisoquinolin-2(1H)-yl]-3-[5-methyl-1-(tricyclo[3.3.1.1^3,7]dec-1-ylmethyl)-1H-pyrazol-4-yl]pyridine-2-carboxylic acid] the EC50 [1] was < 1 nM and the Ki (Bcl-xL) was 0.2 nM.
In the case of `Cc1c(-c2ccc(N3CCc4cccc(C(=O)Nc5nc6ccccc6s5)c4C3)nc2C(=O)NS(C)(=O)=O)cnn1CC12CC3CC(CC(C3)C1)C2` [Example 17, N-(1,3-benzothiazol-2-yl)-2-{6-[(methylsulfonyl)carbamoyl]-5-[5-methyl-1-(tricyclo[3.3.1.1^3,7]dec-1-ylmethyl)-1H-pyrazol-4-yl]pyridin-2-yl}-1,2,3,4-tetrahydroisoquinoline-8-carboxamide], the EC50 [1] is reported as 1 nM and the Ki (Bcl-xL) is reported as < 0.1 nM.
`Cc1c(-c2ccc(N3CCc4cccc(C(=O)Nc5nc6ccccc6s5)c4C3)nc2C(=O)NS(=O)(=O)C2CC2)cnn1CC12CC3CC(CC(C3)C1)C2` [Example 18, N-(1,3-benzothiazol-2-yl)-2-{6-[(cyclopropylsulfonyl)carbamoyl]-5-[5-methyl-1-(tricyclo[3.3.1.1^3,7]dec-1-ylmethyl)-1H-pyrazol-4-yl]pyridin-2-yl}-1,2,3,4-tetrahydroisoquinoline-8-carboxamide] was tested, and the EC50 [1] was 1 nM and the Ki (Bcl-xL) was < 0.1 nM.
With `Cc1c(-c2ccc(N3CCc4cccc(C(=O)Nc5nc6ccccc6s5)c4C3)nc2-c2nn[nH]n2)cnn1CC12CC3CC(CC(C3)C1)C2` [Example 19, N-(1,3-benzothiazol-2-yl)-2-{5-[5-methyl-1-(tricyclo[3.3.1.1^3,7]dec-1-ylmethyl)-1H-pyrazol-4-yl]-6-(2H-tetrazol-5-yl)pyridin-2-yl}-1,2,3,4-tetrahydroisoquinoline-8-carboxamide] the EC50 [1] was 3 nM and the Ki (Bcl-xL) was 0.1 nM.
With `Cc1cc(OCC23CC4CC(CC(C4)C2)C3)ccc1-c1ccc(N2CCc3cccc(C(=O)Nc4nc5ccccc5s4)c3C2)nc1C(=O)O` [Example 20, 6-[8-(1,3-benzothiazol-2-ylcarbamoyl)-3,4-dihydroisoquinolin-2(1H)-yl]-3-{2-methyl-4-[tricyclo[3.3.1.1^3,7]dec-1-ylmethoxy]phenyl}pyridine-2-carboxylic acid] the EC50 [1] was > 1000 nM and the Ki (Bcl-xL) was 4 nM.
For `O=C(Nc1nc2ccccc2s1)c1cccc2c1CN(c1ccc(-c3cccc(OCC45CC6CC(CC(C6)C4)C5)c3)c(C(=O)O)n1)CC2` [Example 22, 6-[8-(1,3-benzothiazol-2-ylcarbamoyl)-3,4-dihydroisoquinolin-2(1H)-yl]-3-{3-[tricyclo[3.3.1.1^3,7]dec-1-ylmethoxy]phenyl}pyridine-2-carboxylic acid], the EC50 [1] was > 1000 nM and the Ki (Bcl-xL) was 1 nM.
In the case of `Cc1c(-c2ccc(N3CCc4cccc(C(=O)Nc5nc6cccnc6s5)c4C3)nc2C(=O)O)cnn1CC12CC3CC(CC(C3)C1)C2` [Example 24, 3-[5-methyl-1-(tricyclo[3.3.1.1^3,7]dec-1-ylmethyl)-1H-pyrazol-4-yl]-6-[8-([1,3]thiazolo[5,4-b]pyridin-2-ylcarbamoyl)-3,4-dihydroisoquinolin-2(1H)-yl]pyridine-2-carboxylic acid], the EC50 [1] is reported as < 1 nM and the Ki (Bcl-xL) is reported as < 0.1 nM.
`O=C(Nc1nc2ccccc2s1)c1cccc2c1CN(c1ccc(-c3ccnc(OCC45CC6CC(CC(C6)C4)C5)c3)c(C(=O)O)n1)CC2` [Example 25, 6-[8-(1,3-benzothiazol-2-ylcarbamoyl)-3,4-dihydroisoquinolin-2(1H)-yl]-2′-(tricyclo[3.3.1.1^3,7]dec-1-ylmethoxy)-3,4′-bipyridine-2-carboxylic acid] was tested, and the EC50 [1] was > 1000 nM and the Ki (Bcl-xL) was 0.8 nM.
Work on `Cc1c(OC23CC4CC(CC(C4)C2)C3)cccc1-c1ccc(N2CCc3cccc(C(=O)Nc4nc5ccccc5s4)c3C2)nc1C(=O)O` [Example 28, 6-[8-(1,3-benzothiazol-2-ylcarbamoyl)-3,4-dihydroisoquinolin-2(1H)-yl]-3-{2-methyl-3-[tricyclo[3.3.1.1^3,7]dec-1-yloxy]phenyl}pyridine-2-carboxylic acid] yielded an EC50 [1] of 22 nM and a Ki (Bcl-xL) of 0.5 nM.
In the case of `N#Cc1c(-c2ccc(N3CCc4cccc(C(=O)Nc5nc6ccccc6s5)c4C3)nc2C(=O)O)cnn1CC12CC3CC(CC(C3)C1)C2` [Example 29, 6-[8-(1,3-benzothiazol-2-ylcarbamoyl)-3,4-dihydroisoquinolin-2(1H)-yl]-3-{5-cyano-1-[tricyclo[3.3.1.1^3,7]dec-1-ylmethyl]-1H-pyrazol-4-yl}pyridine-2-carboxylic acid], the EC50 [1] is reported as 3 nM and the Ki (Bcl-xL) is reported as < 0.1 nM.
`Cc1c(-c2ccc(N3CCc4cccc(C(=O)Nc5nc6cnccc6s5)c4C3)nc2C(=O)O)cnn1CC12CC3CC(CC(C3)C1)C2` [Example 31, 3-[5-methyl-1-(tricyclo[3.3.1.1^3,7]dec-1-ylmethyl)-1H-pyrazol-4-yl]-6-[8-([1,3]thiazolo[4,5-c]pyridin-2-ylcarbamoyl)-3,4-dihydroisoquinolin-2(1H)-yl]pyridine-2-carboxylic acid] was tested, and the EC50 [1] was 5 nM and the Ki (Bcl-xL) was < 0.1 nM.
In the case of `Cc1c(-c2ccc(N3CCc4cccc(C(=O)Nc5nc6ccccc6s5)c4C3)nc2C(=O)O)cnn1CC12CC3CC(C)(CC(C)(C3)C1)C2` [Example 32, 6-[8-(1,3-benzothiazol-2-ylcarbamoyl)-3,4-dihydroisoquinolin-2(1H)-yl]-3-(1-{[3,5-dimethyltricyclo[3.3.1.1^3,7]dec-1-yl]methyl}-5-methyl-1H-pyrazol-4-yl)pyridine-2-carboxylic acid], the EC50 [1] is reported as 1 nM and the Ki (Bcl-xL) is reported as < 0.1 nM.
In the case of `O=C(Nc1nc2ccccc2s1)c1cccc2c1CN(c1ccc(-c3cnn(CC45CC6CC(C4)CC(N4CCS(=O)(=O)CC4)(C6)C5)c3)c(C(=O)O)n1)CC2` [Example 33, 6-[8-(1,3-benzothiazol-2-ylcarbamoyl)-3,4-dihydroisoquinolin-2(1H)-yl]-3-(1-{[3-(1,1-dioxidothiomorpholin-4-yl)tricyclo[3.3.1.1^3,7]dec-1-yl]methyl}-1H-pyrazol-4-yl)pyridine-2-carboxylic acid], the EC50 [1] is reported as > 1000 nM and the Ki (Bcl-xL) is reported as 0.1 nM.
In the case of `Cc1c(-c2ccc(N3CCc4cccc(C(=O)Nc5nc6ccccc6s5)c4C3)nc2C(=O)NS(C)(=O)=O)cc(C#N)n1CC12CC3CC(CC(C3)C1)C2` [Example 35, N-(1,3-benzothiazol-2-yl)-2-{5-[5-cyano-2-methyl-1-(tricyclo[3.3.1.1^3,7]dec-1-ylmethyl)-1H-pyrrol-3-yl]-6-[(methylsulfonyl)carbamoyl]pyridin-2-yl}-1,2,3,4-tetrahydroisoquinoline-8-carboxamide], the EC50 [1] is reported as 1 nM and the Ki (Bcl-xL) is reported as < 0.1 nM.
For `Cc1c(-c2ccc(N3CCc4cccc(C(=O)Nc5nc6ccccc6s5)c4C3)nc2C(=O)NS(=O)(=O)C2CC2)cc(C#N)n1CC12CC3CC(CC(C3)C1)C2` [Example 36, N-(1,3-benzothiazol-2-yl)-2-{5-[5-cyano-2-methyl-1-(tricyclo[3.3.1.1^3,7]dec-1-ylmethyl)-1H-pyrrol-3-yl]-6-[(cyclopropylsulfonyl)carbamoyl]pyridin-2-yl}-1,2,3,4-tetrahydroisoquinoline-8-carboxamide], the EC50 [1] was 0.8 nM and the Ki (Bcl-xL) was 0.3 nM.
For `COC12CC3CC(CC(Cn4ncc(-c5ccc(N6CCc7cccc(C(=O)Nc8nc9ccccc9s8)c7C6)nc5C(=O)NS(C)(=O)=O)c4C)(C3)C1)C2` [Example 37, N-(1,3-benzothiazol-2-yl)-2-{5-(1-{[3-methoxytricyclo[3.3.1.1^3,7]dec-1-yl]methyl}-5-methyl-1H-pyrazol-4-yl)-6-[(methylsulfonyl)carbamoyl]pyridin-2-yl}-1,2,3,4-tetrahydroisoquinoline-8-carboxamide], the EC50 [1] was 3 nM and the Ki (Bcl-xL) was < 0.1 nM.
